Legend:
Format in all cases: in vivo
[1] = test system: Alopecurus myosuroides (ALOMY); test: Test Example B, pre-emergence herbicidal activity; details: Rate 250 g/ha; evaluated after 13 days; 100=total damage to plant, 0=no damage to plant
Method: (§1) Seeds of a variety of test species were sown in standard soil in pots. After cultivation for one day (pre-emergence) or after 8 days cultivation (post-emergence) under controlled conditions in a glasshouse (at 24/16° C., day/night; 14 hours light; 65% humidity), the plants were sprayed with an aqueous spray solution derived from the formulation of the technical active ingredient in acetone/water (50:50) solution containing 0.5% Tween 20 (polyoxyethelyene sorbitan monolaurate, CAS RN 9005-64-5). The test plants were then grown in a glasshouse under controlled conditions in a glasshouse (at 24/16° C., day/night; 14 hours light; 65% humidity) and watered twice daily. After 13 days for pre and post-emergence, the test was evaluated (100=total damage to plant; 0=no damage to plant). Alopecurus myosuroides (ALOMY), Avena fatua (AVEFA), Setaria faberi (SETFA), Echinochloa crus-galli (ECHCG), Solanum nigrum (SOLNI) and Amaranthus retroflexus (AMARE)

[2] = test system: Amaranthus retroflexus (AMARE); test: Test Example B, pre-emergence herbicidal activity; details: Rate 250 g/ha; evaluated after 13 days; 100=total damage to plant, 0=no damage to plant
Method: as §1

[3] = test system: Avena fatua (AVEFA); test: Test Example B, pre-emergence herbicidal activity; details: Rate 250 g/ha; evaluated after 13 days; 100=total damage to plant, 0=no damage to plant
Method: as §1

[4] = test system: Echinochloa crus-galli (ECHCG); test: Test Example B, pre-emergence herbicidal activity; details: Rate 250 g/ha; evaluated after 13 days; 100=total damage to plant, 0=no damage to plant
Method: as §1

[5] = test system: Setaria faberi (SETFA); test: Test Example B, pre-emergence herbicidal activity; details: Rate 250 g/ha; evaluated after 13 days; 100=total damage to plant, 0=no damage to plant
Method: as §1

[6] = test system: Solanum nigrum (SOLNI); test: Test Example B, pre-emergence herbicidal activity; details: Rate 250 g/ha; evaluated after 13 days; 100=total damage to plant, 0=no damage to plant
Method: as §1

[7] = test system: Alopecurus myosuroides (ALOMY); test: Test Example B, post-emergence herbicidal activity; details: Rate 250 g/ha; evaluated after 13 days; 100=total damage to plant, 0=no damage to plant
Method: as §1

[8] = test system: Amaranthus retroflexus (AMARE); test: Test Example B, post-emergence herbicidal activity; details: Rate 250 g/ha; evaluated after 13 days; 100=total damage to plant, 0=no damage to plant
Method: as §1

[9] = test system: Avena fatua (AVEFA); test: Test Example B, post-emergence herbicidal activity; details: Rate 250 g/ha; evaluated after 13 days; 100=total damage to plant, 0=no damage to plant
Method: as §1

[10] = test system: Echinochloa crus-galli (ECHCG); test: Test Example B, post-emergence herbicidal activity; details: Rate 250 g/ha; evaluated after 13 days; 100=total damage to plant, 0=no damage to plant
Method: as §1

[11] = test system: Setaria faberi (SETFA); test: Test Example B, post-emergence herbicidal activity; details: Rate 250 g/ha; evaluated after 13 days; 100=total damage to plant, 0=no damage to plant
Method: as §1

[12] = test system: Solanum nigrum (SOLNI); test: Test Example B, post-emergence herbicidal activity; details: Rate 250 g/ha; evaluated after 13 days; 100=total damage to plant, 0=no damage to plant
Method: as §1

[13] = test system: Alopecurus myosuroides (ALOMY); test: Test Example 1, pre-emergence herbicidal activity; details: Rate 500 g/ha; evaluated 20 days later; 100=total damage to plant, 0=no damage to plant
Method: (§2) Monocotyledonous and dicotyledonous test plants were sown in standard soil in pots. After cultivation for one day (pre-emergence) or after 10 days cultivation (post-emergence) under controlled conditions in a glasshouse, the plants were sprayed with an aqueous spray solution derived from the formulation of the technical active ingredient in 0.6 ml acetone and 45 ml formulation solution containing 10.6% Emulsogen EL (Registry number 61791-12-6), 42.2% N-methylpyrrolidone, 42.2% dipropylene glycol monomethyl ether (Registry number 34590-94-8) and 0.2% X-77 (Registry number 11097-66-8). The test plants were then grown in a greenhouse under optimum conditions until, 15 days later for post-emergence and 20 days for pre-emergence, the test was evaluated (100=total damage to plant; 0=no damage to plant). Alopecurus myosuroides (ALOMY), Avena fatua (AVEFA), Lolium perenne (LOLPE), Setaria faberi (SETFA), Digitaria sanguinalis (DIGSA), Echinochloa crus-galli (ECHCG)

[14] = test system: Avena fatua (AVEFA); test: Test Example 1, pre-emergence herbicidal activity; details: Rate 500 g/ha; evaluated 20 days later; 100=total damage to plant, 0=no damage to plant
Method: as §2

[15] = test system: Digitaria sanguinalis (DIGSA); test: Test Example 1, pre-emergence herbicidal activity; details: Rate 500 g/ha; evaluated 20 days later; 100=total damage to plant, 0=no damage to plant
Method: as §2

[16] = test system: Echinochloa crus-galli (ECHCG); test: Test Example 1, pre-emergence herbicidal activity; details: Rate 500 g/ha; evaluated 20 days later; 100=total damage to plant, 0=no damage to plant
Method: as §2

[17] = test system: Lolium perenne (LOLPE); test: Test Example 1, pre-emergence herbicidal activity; details: Rate 500 g/ha; evaluated 20 days later; 100=total damage to plant, 0=no damage to plant
Method: as §2

[18] = test system: Setaria faberi (SETFA); test: Test Example 1, pre-emergence herbicidal activity; details: Rate 500 g/ha; evaluated 20 days later; 100=total damage to plant, 0=no damage to plant
Method: as §2

[19] = test system: Alopecurus myosuroides (ALOMY); test: Test Example 1, post-emergence herbicidal activity; details: Rate 500 g/ha; evaluated 15 days later; 100=total damage to plant, 0=no damage to plant
Method: as §2

[20] = test system: Avena fatua (AVEFA); test: Test Example 1, post-emergence herbicidal activity; details: Rate 500 g/ha; evaluated 15 days later; 100=total damage to plant, 0=no damage to plant
Method: as §2

[21] = test system: Digitaria sanguinalis (DIGSA); test: Test Example 1, post-emergence herbicidal activity; details: Rate 500 g/ha; evaluated 15 days later; 100=total damage to plant, 0=no damage to plant
Method: as §2

[22] = test system: Echinochloa crus-galli (ECHCG); test: Test Example 1, post-emergence herbicidal activity; details: Rate 500 g/ha; evaluated 15 days later; 100=total damage to plant, 0=no damage to plant
Method: as §2

[23] = test system: Lolium perenne (LOLPE); test: Test Example 1, post-emergence herbicidal activity; details: Rate 500 g/ha; evaluated 15 days later; 100=total damage to plant, 0=no damage to plant
Method: as §2

[24] = test system: Setaria faberi (SETFA); test: Test Example 1, post-emergence herbicidal activity; details: Rate 500 g/ha; evaluated 15 days later; 100=total damage to plant, 0=no damage to plant
Method: as §2

Row | SMILES | Pre-Emergence Activity ALOMY (damage to plant) [1] | Pre-Emergence Activity AMARE (damage to plant) [2] | Pre-Emergence Activity AVEFA (damage to plant) [3] | Pre-Emergence Activity ECHCG (damage to plant) [4] | Pre-Emergence Activity SETFA (damage to plant) [5] | Pre-Emergence Activity SOLNI (damage to plant) [6] | Post-Emergence Activity ALOMY (damage to plant) [7] | Post-Emergence Activity AMARE (damage to plant) [8] | Post-Emergence Activity AVEFA (damage to plant) [9] | Post-Emergence Activity ECHCG (damage to plant) [10] | Post-Emergence Activity SETFA (damage to plant) [11] | Post-Emergence Activity SOLNI (damage to plant) [12] | Pre-Emergence Activity ALOMY (damage to plant) [13] | Pre-Emergence Activity AVEFA (damage to plant) [14] | Pre-Emergence Activity DIGSA (damage to plant) [15] | Pre-Emergence Activity ECHCG (damage to plant) [16] | Pre-Emergence Activity LOLPE (damage to plant) [17] | Pre-Emergence Activity SETFA (damage to plant) [18] | Post-Emergence Activity ALOMY (damage to plant) [19] | Post-Emergence Activity AVEFA (damage to plant) [20] | also measured
1 | Cc1ccc(-c2ccc(Cl)cc2)cc1C1(Cl)C(=O)C(C)(C)OC(C)(C)C1=O [Compound A4, 4-Chloro-4-(4′-chloro-4-methylbiphenyl-3-yl)-2,2,6,6-tetramethyl-pyran-3,5-dione] | 30 | 0 | 70 | 100 | 100 | 0 | 100 | 0 | 90 | 100 | 100 | 0 |  |  |  |  |  |  |  |  | 
2 | Cc1ccc(-c2ccc(Cl)cc2)cc1C1(Cl)C(=O)COC(C)(C)C1=O (stereo not drawn) [Compound A3, 4-chloro-4-(4′-chloro-4-methylbiphenyl-3-yl)-2,2-dimethylpyran-3,5-dione] | 0 | 0 | 0 | 50 | 0 | 0 | 0 | 0 | 0 | 80 | 80 | 0 |  |  |  |  |  |  |  |  | 
3 | CCc1ccc(-c2ccc(Cl)cc2Cl)cc1C1(Cl)C(=O)C(C)(C)OC(C)(C)C1=O [Compound A2, 4-chloro-4-(2′,4′-dichloro-4-ethylbiphen-3-yl)-2,2,6,6-tetramethylpyran-3,5-dione] |  |  |  |  |  |  |  |  |  |  |  |  | 0 | 50 | 90 | 90 | 70 | 90 | 60 | 80 | Post-Emergence Activity DIGSA (damage to plant) [21]: 100; Post-Emergence Activity ECHCG (damage to plant) [22]: 100; Post-Emergence Activity LOLPE (damage to plant) [23]: 100; Post-Emergence Activity SETFA (damage to plant) [24]: 100
4 | CCc1ccc(-c2ccc(Cl)cc2Cl)cc1C1([N+](=O)[O-])C(=O)C(C)(C)OC(C)(C)C1=O [Compound A1, 4-(2′,4′-dichloro-4-ethylbiphen-3-yl)-2,2,6,6-tetramethyl-4-nitropyran-3,5-dione] |  |  |  |  |  |  |  |  |  |  |  |  | 20 | 30 | 70 | 20 | 30 | 0 | 60 | 70 | Post-Emergence Activity DIGSA (damage to plant) [21]: 100; Post-Emergence Activity ECHCG (damage to plant) [22]: 100; Post-Emergence Activity LOLPE (damage to plant) [23]: 100; Post-Emergence Activity SETFA (damage to plant) [24]: 100

Source: patent US8623907B2, “Herbicides” (Syngenta Participations, AG, priority 2008, dated 2014)
